In patent US20110082074A1, “AGENT FOR PREVENTING PERIODONTAL DISEASE” (priority 2009, published 2011):
Entries after “also recorded” stand apart in the source; their conditions may differ.

Key:
[1] = system: interaction between gingival cells and FimA II; assay: Comparison with other lectins: labeled test cells bound to immobilized FimA II-His; type: cell-based, Porphyromonas gingivalis; conditions: 10 μL beads; SBA compared to WGA (wheat germ lectin); FIG. 5
Description: FimA II-His (10 μg/ml) was immobilized onto a 96-well plate, and test cells that had been fluorescently labeled with CellTracker Green CMFDA (manufactured by Invitrogen) were bound in an amount of 1×10^6 cells.
Subsequently, 10 μL of SBA beads, RGD peptides, RGD peptide−SBA beads, WGA beads, or RGD peptide-WGA beads were allowed to coexist, and the plate was shaken.
The WGA beads are beads prepared in the same manner as in the production of SBA beads described above in Item 1, except for using WGA in place of SBA. The RGD peptide-WGA beads are beads prepared in the same manner as in the production of RGD peptide−SBA beads described above in Item 2, except for using WGA in place of SBA.
(§1) The 96-well plate was filled with PBS. After unbound cells were removed, bound cells were detected using a fluorescent plate reader.

[2] = system: P. gingivalis carrying type II FimA fimbrial protein; assay: Binding Inhibitory Experiment 3: fluorescently labeled P. gingivalis bound to seeded test cells; type: cell-based, Porphyromonas gingivalis; conditions: 30 μl beads, 10 μl P. gingivalis, room temperature 10 minutes; FIG. 4
Description: Test cells were seeded into a 96-well plate in an amount of 5×10^5 cells. The next day, 10 μl of P. gingivalis carrying FimA type II fimbrial protein was allowed to bind, and 30 μl each of SBA beads, RGD peptide−SBA beads, and fibronectin−SBA beads were added. The plate was shaken at room temperature for 10 minutes.
The 96-well plate was gently washed. Fluorescently labeled P. gingivalis carrying type II FimA fimbrial protein bound to the cells was detected using a fluorescence detector. P. gingivalis was fluorescently labeled by using an FITC Labeling Kit (manufactured by Kirkegaard & Perry Laboratories, Inc.) after P. gingivalis was immobilized with formalin.

[3] = system: TGF-β; assay: Confirmation of cytokine production: TGF-β produced by Ca9-22 cells; type: cell-based; conditions: 30 μl beads, FIG. 7
Description: Ca9-22 cells were seeded into a 96-well plate in an amount of 5×10^5 cells. The next day, (1) a lipopolysaccharide (hereinafter also referred to as “LPS”; 10 ng/ml), (2) TNF-α(10 ng/ml), (3) P. gingivalis carrying FimA type II fimbrial protein (5 μl), or (4) FimA II-GST (10 μg/ml) was added as a reagent. The parenthesized numerals in the above sentence indicate the final concentrations in the media containing the reagents to 50 μl of the medium.
SBA beads, RGD peptide−SBA beads, or fibronectin−SBA beads were allowed to coexist therewith in an amount of 30 μl, and the plate was rocked. The amount of TGF-β produced was then measured.

[4] = biological target: T1, binding of type II FimA protein to α5β1 integrin expression cells (Homo sapiens, UniProt P05556+P08648); assay: Binding Inhibitory Experiment 2: fluorescently labeled test cells bound to immobilized FimA II-His; type: cell-based, Porphyromonas gingivalis; conditions: 50 μl beads, compared to fibronectin or RGD peptide alone, FIG. 3
T1 construct: expressed in transfected cells; host or cells: CHO (CHO-VLA5)
Description: (§2) CHO cells on which α5β1 integrin was forcedly expressed by introducing a gene encoding α5β1 integrin (hereinafter sometimes referred to as “CHO-VLA5”), and gingival cells were used in the Binding Inhibitory Experiments described below. As the gingival cells, three types of cells, GE1, Ca9-22 and Sa3, were used. As a control, CHO cells into which α5β1 integrin was not introduced were used. GE1, Ca9-22, and Sa3 were obtained from ATCC (American Type Culture Collection).
FimA II-His (10 μg/(ml)) was immobilized onto a 96-well plate, and test cells that had been fluorescently labeled with CellTracker Green CMFDA (available from Invitrogen) were added in an amount of 1×10^6 cells and allowed to bind.
50 μl of SBA beads, RGD peptide−SBA beads, or fibronectin−SBA beads were allowed to coexist in each well, and the plate was shaken. For comparison, an experiment in which an RGD peptide or fibronectin was allowed to coexist was performed in a similar manner.
Each well of the 96-well plates was filled with serum-free Dulbecco's modified Eagle's medium (hereinafter referred to as DMEM) or with PBS, and covered with a Parafilm to prevent air from entering. The plate was turned upside-down and allowed to stand for 5 minutes. After removing the Parafilm, a supernatant containing unbound cells was removed, and bound cells were detected using a fluorescent plate reader.

[5] = system: TNFRI (TNF-α Receptor Type I); assay: TNFRI phosphorylation by western blotting in test cells treated with P. gingivalis; type: cell-based; conditions: test cells with P. gingivalis carrying type II FimA fimbrial protein (10 μl), 30 μl beads, FIG. 8
Description: Test cells were seeded into a 96-well plate in an amount of 5×10^5 cells. The next day, each well was washed with DMEM, and then P. gingivalis carrying type II FimA fimbrial protein (10 μl) was added as a reagent. The numerical value in the parentheses indicates the final concentration in the medium containing the reagent.
SBA beads, RGD peptide−SBA beads, or fibronectin−SBA beads were allowed to coexist therewith in an amount of 30 μl, and the plate was shaken. After each plate was washed well with PBS, cells were dissolved in 1% NP-40, and subjected to western blotting using an anti-TNFRI antibody, anti-tyrosine phosphorylation antibody, and anti-actin antibody.

[6] = biological target: T2, α5β1 integrin expressing cells (Homo sapiens, UniProt P05556+P08648); assay: Binding ratio of RGD peptide or fibronectin to SBA beads, FimA II-His binding inhibitory experiment; type: cell-based; conditions: RGD peptide bound in an amount of 10 to 30 μg per 100 μg of SBA beads
T2 construct: expressed in transfected cells; host or cells: CHO (CHO-VLA5)
Description: Another experiment was performed using α5β1 integrin expressing cells in a manner similar to the FimA II-His tag protein binding inhibitory experiment described above, to investigate the binding ratio of RGD peptide or fibronectin to SBA beads.

[7] = biological target: T3, binding of FimA type II fimbrial protein to α5β1 integrin expression cells (Homo sapiens, UniProt P05556+P08648); assay: Binding Inhibitory Experiment 1: FimA II-His bound to seeded test cells, detected by ELISA; type: cell-based, Porphyromonas gingivalis; conditions: cells immobilized; 10 μl beads; about 30 μM RGD peptide or fibronectin, about 100 μM SBA; compared to fibronectin or RGD peptide alone; FIG. 2
T3 construct: expressed in transfected cells; host or cells: CHO (CHO-VLA5)
Description: as §2
Test cells were seeded into a 96-well plate in an amount of 5×10^5 cells. Subsequently, 50 μl of FimA II-His (10 μg/ml) was allowed to bind to the cells, and 10 μl of SBA beads, RGD peptide−SBA beads, or fibronectin−SBA beads were allowed to coexist. The plate was shaken at room temperature for 10 minutes. For comparison, an experiment in which an RGD peptide or fibronectin was allowed to coexist was performed in a similar manner. […]
After the 96-well plate was gently washed, FimA II-His bound to the cells was detected by ELISA using an anti-His tag antibody (Cat. No. 71554-3; available from Novagen).
The fibronectin−SBA bead solution contained about 30 μM of fibronectin and about 100 μM of SBA, whereas the solution containing only fibronectin contained about 30 μM of fibronectin. These values were calculated by measuring the amount of each protein not bound to the beads during the production. […]

[8] = system: binding between gingival cells and FimA II; assay: Effect of monosaccharide on binding inhibitory effect: labeled test cells bound to immobilized FimA II-His; type: cell-based, Porphyromonas gingivalis; conditions: monosaccharide final concentration 50 μg/ml with 10 μl RGD peptide−SBA beads; FIG. 6
Description: FimA II-His (10 μg/ml) was immobilized onto a 96-well plate, and test cells that had been fluorescently labeled with CellTracker Green CMFDA (Invitrogen) were bound thereto in an amount of 1×10^6 cells.
SBA beads, RGD peptide, or RGD peptide−SBA beads were allowed to coexist in the wells in an amount of 10 μl, and the plate was shaken. In addition to the RGD peptide−SBA beads, glucose or N-acetylgalactosamine (GalNAc) was allowed to coexist therewith in a final concentration of 50 μg/ml. For comparison, wells of a 96-well plate in which no beads were present and only N-acetylgalactosamine was present in a final concentration of 50 μg/ml were also prepared.
as §1

[9] = Ca9-22 cells treated with LPS 10 ng/ml
[10] = Ca9-22 cells treated with TNF-α 10 ng/ml
[11] = Ca9-22 cells with FimA II-GST 10 μg/ml
[12] = Ca9-22 cells with P. gingivalis carrying FimA type II fimbrial protein (5 μl)

T1 sequence (P08648 42-894 limits assumed): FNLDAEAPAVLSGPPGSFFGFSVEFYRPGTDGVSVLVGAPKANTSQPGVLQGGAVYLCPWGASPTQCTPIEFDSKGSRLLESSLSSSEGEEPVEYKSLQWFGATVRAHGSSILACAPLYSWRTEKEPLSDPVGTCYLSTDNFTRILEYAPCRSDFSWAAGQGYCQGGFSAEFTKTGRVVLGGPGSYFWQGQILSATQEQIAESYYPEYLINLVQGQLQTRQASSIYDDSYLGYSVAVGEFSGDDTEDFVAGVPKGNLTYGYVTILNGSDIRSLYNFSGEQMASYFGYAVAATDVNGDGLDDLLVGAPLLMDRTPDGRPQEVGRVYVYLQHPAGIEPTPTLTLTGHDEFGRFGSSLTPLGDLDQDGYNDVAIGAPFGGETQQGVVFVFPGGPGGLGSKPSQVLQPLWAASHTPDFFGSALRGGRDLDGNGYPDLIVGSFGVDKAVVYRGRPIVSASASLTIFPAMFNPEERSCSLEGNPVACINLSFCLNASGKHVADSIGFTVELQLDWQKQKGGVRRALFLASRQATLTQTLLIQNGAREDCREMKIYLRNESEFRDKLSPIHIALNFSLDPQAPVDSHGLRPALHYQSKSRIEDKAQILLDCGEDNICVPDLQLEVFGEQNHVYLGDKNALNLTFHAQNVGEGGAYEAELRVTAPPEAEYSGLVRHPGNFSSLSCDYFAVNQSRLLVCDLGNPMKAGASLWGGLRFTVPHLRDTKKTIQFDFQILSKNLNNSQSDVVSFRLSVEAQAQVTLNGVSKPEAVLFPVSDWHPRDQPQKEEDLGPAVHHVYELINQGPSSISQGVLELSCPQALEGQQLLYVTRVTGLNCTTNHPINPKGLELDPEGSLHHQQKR
T1 sequence (P08648 895-1049 limits assumed): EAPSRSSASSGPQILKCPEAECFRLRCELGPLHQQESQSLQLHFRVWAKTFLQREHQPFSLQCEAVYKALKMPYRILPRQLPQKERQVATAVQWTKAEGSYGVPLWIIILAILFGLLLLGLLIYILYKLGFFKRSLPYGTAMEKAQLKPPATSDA
T1 sequence (P05556 21-798): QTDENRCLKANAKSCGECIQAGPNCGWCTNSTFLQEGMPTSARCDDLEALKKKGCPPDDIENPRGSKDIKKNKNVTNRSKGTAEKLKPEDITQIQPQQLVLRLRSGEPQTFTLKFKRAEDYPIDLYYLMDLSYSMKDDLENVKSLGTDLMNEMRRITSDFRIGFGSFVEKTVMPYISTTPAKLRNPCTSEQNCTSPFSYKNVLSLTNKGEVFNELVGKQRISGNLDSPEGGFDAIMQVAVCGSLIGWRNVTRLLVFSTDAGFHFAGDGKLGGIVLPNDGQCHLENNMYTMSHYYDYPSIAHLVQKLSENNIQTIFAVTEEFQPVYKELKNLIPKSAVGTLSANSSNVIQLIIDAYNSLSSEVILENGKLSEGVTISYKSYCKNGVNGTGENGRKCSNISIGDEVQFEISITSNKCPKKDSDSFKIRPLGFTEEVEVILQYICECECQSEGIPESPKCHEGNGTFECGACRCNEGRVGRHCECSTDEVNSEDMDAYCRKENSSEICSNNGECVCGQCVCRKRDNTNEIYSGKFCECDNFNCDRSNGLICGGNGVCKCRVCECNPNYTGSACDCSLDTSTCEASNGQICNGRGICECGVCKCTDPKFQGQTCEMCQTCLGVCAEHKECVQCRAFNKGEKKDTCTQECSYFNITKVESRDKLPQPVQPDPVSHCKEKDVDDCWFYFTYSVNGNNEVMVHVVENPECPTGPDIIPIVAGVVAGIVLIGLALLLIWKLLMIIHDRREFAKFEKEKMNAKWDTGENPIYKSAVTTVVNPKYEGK
T2 sequence (P08648 42-894 limits assumed): as the sequence (P08648 42-894 limits assumed) above
T2 sequence (P08648 895-1049 limits assumed): as the sequence (P08648 895-1049 limits assumed) above
T2 sequence (P05556 21-798): as the sequence (P05556 21-798) above
T3 sequence (P08648 42-894 limits assumed): as the sequence (P08648 42-894 limits assumed) above
T3 sequence (P08648 895-1049 limits assumed): as the sequence (P08648 895-1049 limits assumed) above
T3 sequence (P05556 21-798): as the sequence (P05556 21-798) above

Molecule	inhibition of the interaction between gingival cells and FimA II [1]	inhibition of binding of P. gingivalis carrying type II FimA fimbrial protein to gingival cells [2]	production of TGF-β [3, 9]	production of TGF-β [3, 10]	production of TGF-β [3, 11]	production of TGF-β [3, 12]	inhibition of binding of type II FimA protein to α5β1 integrin expression cells [4]	phosphorylated tyrosine of the activation receptor (TNFRI) [5]	binding inhibition depending on binding ratio of RGD peptide to SBA beads [6]	inhibition of binding of FimA type II fimbrial protein to α5β1 integrin expression cells [7]	effect of coexisting monosaccharide on the RGD peptide−SBA binding inhibitory effect [8]
SBA: soybean lectin (soybean agglutinin), mucin-type sugar chain-binding lectin; tested bound to beads	more potently inhibits										
SBA beads: conjugate of soybean lectin and NHS-activated Sepharose beads		slightly inhibited binding	production of TGF-β was observed	production of TGF-β was observed	production of TGF-β was detected	production of TGF-β was detected					
RGD peptide−SBA beads: beads in which SBA beads and RGD-peptide (SEQ ID NO: 3, RGDSPASSKP) are bound		inhibited; also recorded: remarkably high binding inhibitory effect	production of TGF-β was observed	production of TGF-β was observed	production of TGF-β was inhibited	production of TGF-β was inhibited	significantly inhibited; also recorded: higher than that of fibronectin−SBA beads	not detected	inhibited binding most effectively	significantly inhibited	
CC(=O)N[C@H]1C(O)O[C@H](CO)[C@H](O)[C@@H]1O (stereo partly shown) [N-acetylgalactosamine]											did so
